According to patent publication US20050256093A1, “Branched polyamine steroid derivatives” (Leo Pharma, priority 2002, published 2005):
≈ marks a conversion by molar mass, not a printed value.

Tests used:
Experiment in all cases: agar cup assay MIC
Assay type in all cases: cell-based
[1] = system: Propionibacterium acnes FN33; conditions: Cutibacterium acnes
From the text: (§1) In vitro investigations have shown a significant potency of the compounds of the invention against a large number of bacteria including gram-positive and gram-negative strains (Staphyiococci, Streptococci, Corynebacteriae, Mycobacteriae, Proteus, Propionibacterium, Pseudomonas, Neisseriae, E. coli) and fungal strains (Candida and Aspergillus). […] In addition, the studies of post-antibiotic effects point towards a strong bactericidal effect of the compounds of the invention. […] Minimum Inhibitory Concentrations were estimated using an agar cup assay. Bacterial strains were obtained from the American Type Culture Collection or from our own collection of clinical isolates. Colonies from fresh overnight culture were resuspended in saline water to 0.5 MacFarland corresponding to 10^8 CFU/ml. 200 ml Mueller Hinton agar (Oxoid) at 48° C. was inoculated at a concentration of 10^6 CFU/ml and poured into square petri dishes (245×245 mm). Holes were made in the inoculated plates and 200 μl of the compounds to be tested were disposed into each hole. A dilution series of compounds contained six dilution between 0.25 and 125 μg/ml. For Streptococci Mueller Hinton agar was supplemented with 5% sheep blood. Plates were appropriately incubated and zone diameters of growth inhibition were measured using an electronic caliper. MICs were estimated using a linear regression curve between the zone diameter of growth inhibition and the log2 of the sample concentration. The microbiological assay set up is in agreement with the European Pharmacopoeia 3rd edition (1997). The inhibition zones are function of the concentration of the compounds used. Known antibiotics including fusidic acid (FA), mupirocin and linezolid were used as reference compounds.

[2] = system: Saccaromyces cervisiae ZZ7; conditions: Saccharomyces cerevisiae
From the text: as §1

[3] = system: S. aureus CJ247; conditions: Staphylococcus aureus
From the text: as §1

[4] = system: E. coli HA165; conditions: Escherichia coli
From the text: as §1

[5] = system: Streptococcus pyogenes EC88; conditions: agar with 5% sheep blood
From the text: as §1

[6] = system: Streptococcus faecium EI19; conditions: Enterococcus faecium; Streptococcus faecium EI19 (Penicillin resistant); agar with 5% sheep blood
From the text: as §1

[7] = system: S. epidermis CK5; conditions: Staphylococcus epidermidis
From the text: as §1

[8] = system: Corynebacterium xerosis FF
From the text: as §1

[9] = system: S. aureus N6; conditions: Staphylococcus aureus; S. aureus N6 (Fus. resistant)
From the text: as §1

[10] = system: S. aureus CJ200; conditions: Staphylococcus aureus
From the text: as §1

[11] = system: S. aureus CJ234R; conditions: Staphylococcus aureus; S. aureus CJ234R (MRSA, Rifampicin resistant)
From the text: as §1

[12] = system: S. aureus CJ234F; conditions: Staphylococcus aureus; S. aureus CJ234F (MRSA, Fus. resistant)
From the text: as §1

[13] = system: Pseudomonas aeruginosa BA17
From the text: as §1

[14] = system: Asbergillus niger ZM35; conditions: Aspergillus niger
From the text: as §1

[15] = system: Candida albicans ZA
From the text: as §1

CC(=O)O[C@H]1C[C@@]2(C)C(C[C@@H](O)C3[C@@]4(C)CC[C@@H](O)[C@@H](C)C4CC[C@@]32C)[C@@H]1[C@H](CCCC(C)C)C(=O)NCCN(CCN)CCN (stereo partly drawn) [Compound 101, 21-N-{2′-[bis(2′-aminoethyl)amino]ethyl}-17R,20S,24,25-tetrahydrofusid-21-amide]
MIC [1]: 4 µg/mL (≈ 6.16 µM)
MIC [2]: 4 µg/mL (≈ 6.16 µM)
MIC [3]: 4 µg/mL (≈ 6.16 µM)
MIC [4]: 16 µg/mL (≈ 24.7 µM)
MIC [5]: 16 µg/mL (≈ 24.7 µM)
MIC [6]: 16 µg/mL (≈ 24.7 µM)
MIC [7]: 4 µg/mL (≈ 6.16 µM)
MIC [8]: 4 µg/mL (≈ 6.16 µM)
MIC [9]: 4 µg/mL (≈ 6.16 µM)
MIC [10]: 4 µg/mL (≈ 6.16 µM)
MIC [11]: 4 µg/mL (≈ 6.16 µM)
MIC [12]: 4 µg/mL (≈ 6.16 µM)
MIC [13]: 64 µg/mL (≈ 98.6 µM)
MIC [14]: 4 µg/mL (≈ 6.16 µM)
MIC [15]: 16 µg/mL (≈ 24.7 µM)

CC(=O)O[C@H]1C[C@@]2(C)C(CC=C3[C@]2(C)CCC2[C@H](C)[C@H](O)CC[C@]32C)[C@@H]1[C@H](CCCC(C)C)C(=O)NCCN(CCN)CCN (stereo partly drawn) [Compound 106, 21-N-{2′-[bis(2′-aminoethyl)amino]ethyl}-9(11)-en-17R,20S,24,25-tetrahydrofusid-21-amide]
MIC [1]: 4 µg/mL (≈ 6.34 µM)
MIC [2]: 16 µg/mL (≈ 25.4 µM)
MIC [3]: 4 µg/mL (≈ 6.34 µM)
MIC [4]: 16 µg/mL (≈ 25.4 µM)
MIC [5]: 4 µg/mL (≈ 6.34 µM)
MIC [6]: 16 µg/mL (≈ 25.4 µM)
MIC [7]: 4 µg/mL (≈ 6.34 µM)
MIC [8]: 4 µg/mL (≈ 6.34 µM)
MIC [9]: 4 µg/mL (≈ 6.34 µM)
MIC [11]: 4 µg/mL (≈ 6.34 µM)
MIC [12]: 4 µg/mL (≈ 6.34 µM)
MIC [13]: 16 µg/mL (≈ 25.4 µM)
MIC [14]: 63 µg/mL (≈ 99.8 µM)
MIC [15]: 16 µg/mL (≈ 25.4 µM)

CC(=O)O[C@H]1C[C@@]2(C)C(CCC3[C@@]4(C)CC[C@@H](OS(=O)(=O)O)[C@@H](C)C4CC[C@@]32C)[C@@H]1[C@H](CCCC(C)C)C(=O)NCCN(CCN)CCN (stereo partly shown) [Compound 111, 21-N-{2′-[bis(2′-aminoethyl)amino]ethyl}-3-OSO3-11-desoxy-17,20,24,25-tetrahydro-fusid-21-amide]
MIC [1]: 4 µg/mL (≈ 5.61 µM)
MIC [2]: 64 µg/mL (≈ 89.8 µM)
MIC [4]: 16 µg/mL (≈ 22.4 µM)
MIC [5]: 16 µg/mL (≈ 22.4 µM)
MIC [7]: 4 µg/mL (≈ 5.61 µM)
MIC [8]: 16 µg/mL (≈ 22.4 µM)
MIC [10]: 16 µg/mL (≈ 22.4 µM)
MIC [11]: 16 µg/mL (≈ 22.4 µM)
MIC [12]: 16 µg/mL (≈ 22.4 µM)
MIC [13]: > 125 µg/mL
MIC [14]: 64 µg/mL (≈ 89.8 µM)
MIC [15]: 125 µg/mL (≈ 175 µM)

CC(C)CCCC(C(=O)NCCN(CCN)CCN)[C@H]1CC[C@@]2(C)C1CCC1[C@@]3(C)CC[C@@H](O)[C@@H](C)C3CC[C@@]12C (stereo partly shown) [Compound 112, 21-N-{2′-[bis(2′-aminoethyl)amino]ethyl}-11-desoxy-16-desacetoxy-17S,20,24,25-tetrahydrofusid-21-amide]
MIC [3]: 1 µg/mL (≈ 1.74 µM)
MIC [7]: 1 µg/mL (≈ 1.74 µM)
MIC [8]: 0.25 µg/mL (≈ 0.435 µM)
MIC [9]: 1 µg/mL (≈ 1.74 µM)
MIC [10]: 1 µg/mL (≈ 1.74 µM)
MIC [11]: 1 µg/mL (≈ 1.74 µM)
MIC [12]: 1 µg/mL (≈ 1.74 µM)

C[C@H](C(=O)NCCCN(CCCN)CCCN)[C@H]1CC[C@H]2[C@@H]3CC=C4C[C@@H](O)CC[C@]4(C)[C@H]3CC[C@]12C [Compound 114, 22-N-{3′-[bis(3′-aminopropyl)amino]propyl}-23,24-bisnor-5-cholenic-22-amide]
MIC [1]: 16 µg/mL (≈ 31 µM)
MIC [2]: 64 µg/mL (≈ 124 µM)
MIC [3]: 16 µg/mL (≈ 31 µM)
MIC [4]: 16 µg/mL (≈ 31 µM)
MIC [5]: 64 µg/mL (≈ 124 µM)
MIC [7]: 16 µg/mL (≈ 31 µM)
MIC [8]: 64 µg/mL (≈ 124 µM)
MIC [9]: 16 µg/mL (≈ 31 µM)
MIC [10]: 16 µg/mL (≈ 31 µM)
MIC [11]: 16 µg/mL (≈ 31 µM)
MIC [12]: 16 µg/mL (≈ 31 µM)
MIC [13]: > 125 µg/mL
MIC [15]: > 125 µg/mL

CC(=O)O[C@H]1C[C@@]2(C)C(C[C@@H](O)C3[C@@]4(C)CC[C@@H](OC(C)=O)[C@@H](C)C4CC[C@@]32C)[C@@H]1[C@H](CCCC(C)C)C(=O)NCCCN(CCCN)CCCN (stereo partly shown) [Compound 115]
MIC [1]: 4 µg/mL (≈ 5.46 µM)
MIC [2]: 16 µg/mL (≈ 21.8 µM)
MIC [4]: 16 µg/mL (≈ 21.8 µM)
MIC [5]: 4 µg/mL (≈ 5.46 µM)
MIC [7]: 4 µg/mL (≈ 5.46 µM)
MIC [8]: 64 µg/mL (≈ 87.3 µM)
MIC [10]: 4 µg/mL (≈ 5.46 µM)
MIC [11]: 4 µg/mL (≈ 5.46 µM)
MIC [13]: 16 µg/mL (≈ 21.8 µM)
MIC [14]: 125 µg/mL (≈ 171 µM)
MIC [15]: 16 µg/mL (≈ 21.8 µM)

CC(=O)O[C@H]1C[C@@]2(C)C(CCC3[C@@]4(C)CC[C@@H](OS(=O)(=O)O)[C@@H](C)C4CC[C@@]32C)[C@@H]1[C@H](CCCC(C)C)C(=O)NCCCN(CCCN)CCCN (stereo partly shown) [Compound 116]
MIC [1]: 16 µg/mL (≈ 21.2 µM)
MIC [2]: 16 µg/mL (≈ 21.2 µM)
MIC [4]: 64 µg/mL (≈ 84.8 µM)
MIC [5]: 16 µg/mL (≈ 21.2 µM)
MIC [7]: 4 µg/mL (≈ 5.3 µM)
MIC [8]: 4 µg/mL (≈ 5.3 µM)
MIC [10]: 4 µg/mL (≈ 5.3 µM)
MIC [11]: 4 µg/mL (≈ 5.3 µM)
MIC [12]: 4 µg/mL (≈ 5.3 µM)
MIC [13]: 125 µg/mL (≈ 166 µM)
MIC [14]: 64 µg/mL (≈ 84.8 µM)
MIC [15]: 64 µg/mL (≈ 84.8 µM)

CC(C)CCCC(C(=O)NCCCN(CCCN)CCCN)[C@H]1CC[C@@]2(C)C1CCC1[C@@]3(C)CC[C@@H](O)[C@@H](C)C3CC[C@@]12C (stereo partly shown) [Compound 117, 21-N-{3′-[bis(3′-aminopropyl)amino]propyl}-1-11-desoxy-16-desacetoxy-17S,20,24,25-tetrahydrofusid-21-amide]
MIC [3]: 1 µg/mL (≈ 1.62 µM)
MIC [7]: 1 µg/mL (≈ 1.62 µM)
MIC [8]: 0.25 µg/mL (≈ 0.405 µM)
MIC [9]: 1 µg/mL (≈ 1.62 µM)
MIC [10]: 1 µg/mL (≈ 1.62 µM)
MIC [11]: 1 µg/mL (≈ 1.62 µM)
MIC [12]: 1 µg/mL (≈ 1.62 µM)

CC(=O)O[C@H]1C[C@@]2(C)[C@@H](C[C@@H](O)[C@H]3[C@@]4(C)CC[C@@H](O)[C@@H](C)[C@@H]4CC[C@@]32C)/C1=C(\CCC=C(C)C)C(=O)O [FA, fusidic acid, reference compound]
MIC [1]: 0.2 µg/mL (≈ 0.387 µM)
MIC [2]: > 64 µg/mL
MIC [3]: 0.02 µg/mL (≈ 0.0387 µM)
MIC [4]: > 64 µg/mL
MIC [5]: 16 µg/mL (≈ 31 µM)
MIC [7]: 0.02 µg/mL (≈ 0.0387 µM)
MIC [8]: 0.1 µg/mL (≈ 0.194 µM)
MIC [9]: 16 µg/mL (≈ 31 µM)
MIC [10]: 0.02 µg/mL (≈ 0.0387 µM)
MIC [11]: 0.02 µg/mL (≈ 0.0387 µM)
MIC [12]: 16 µg/mL (≈ 31 µM)
MIC [13]: > 64 µg/mL
MIC [14]: > 64 µg/mL
MIC [15]: > 64 µg/mL

CC(=O)NC[C@H]1CN(c2ccc(N3CCOCC3)c(F)c2)C(=O)O1 [Linezolid, linezolid, reference compound]
MIC [1]: 1 µg/mL (≈ 2.96 µM)
MIC [3]: 1 µg/mL (≈ 2.96 µM)
MIC [5]: 4 µg/mL (≈ 11.9 µM)
MIC [7]: 0.25 µg/mL (≈ 0.741 µM)
MIC [10]: 4 µg/mL (≈ 11.9 µM)
MIC [11]: 16 µg/mL (≈ 47.4 µM)
MIC [12]: 1 µg/mL (≈ 2.96 µM)

C/C(=C\C(=O)OCCCCCCCCC(=O)O)C[C@@H]1OC[C@H](C[C@@H]2O[C@H]2[C@@H](C)[C@H](C)O)[C@@H](O)[C@H]1O [Mupirocin, mupirocin, reference compound]
MIC [3]: 0.5 µg/mL (≈ 0.999 µM)
MIC [5]: 1 µg/mL (≈ 2 µM)
MIC [7]: 0.04 µg/mL (≈ 0.0799 µM)
MIC [10]: 1 µg/mL (≈ 2 µM)
MIC [11]: 1 µg/mL (≈ 2 µM)
MIC [12]: 0.5 µg/mL (≈ 0.999 µM)
